Test results reported in patent US5254686A, “Procaine double salt complexes” (priority 1992, dated 1993).
Structures can show the parent of a compound that is named as a salt.

Tests used:
[1] = solubility in water and ethanol; type: physicochemical
Method: To 50 mls. of boiling water was added 27.2 grams (0.1 mole) of procaine HCl with stirring until completely dissolved. With stirring was added 12.3 grams (0.1 mole) of nicotinic acid. This mixture was heated at the boiling point until clear. The solution was allowed to cool and a white crystalline precipitate formed which was separated in a Buchner funnel and washed twice with […] of cold distilled water. […] In contrast, a 1:1 molar mixture of procaine HCl and nicotinic acid melts at 145°-150° C.
Into a hot solution of 50 mls of ethanol and 30 mls of water was dissolved 2.72 grams (0.01 mole) of procaine HCl. To this was added 2.44 grams (0.01 mole) of biotin and heat was maintained until the ingredients reacted and the solution cleared. On cooling, crystallization took place easily. White crystalline platelets were filtered, washed and dried.

[2] = unlike other mental stimulants such as amphetamines; cited from earlier work
[3] = 1.3-6.5 moles of caffeine per mole of procaine, aqueous solutions; cited from earlier work
[4] = hydrochloride salt form; cited from earlier work
plasma cholinesterase = conditions: once absorbed; into PABA and DEAE; cited from earlier work

CCN(CC)CCOC(=O)c1ccc(N)cc1 [II, 1:1 Complex of Procaine HCl and Nicotinic Acid]
solubility in water and 95% ethanol ([1]; water and 95% ethanol): moderately soluble

CCN(CC)CCOC(=O)c1ccc(N)cc1 [IV, 1:1 Complex of Procaine HCl and Biotin]
solubility in water and ethanol ([1]; water and ethanol): partly soluble

CCN(CC)CCO [DEAE, diethylaminoethanol]
adverse side effects [2]: no adverse side effects such as depression

Cn1c(=O)c2c(ncn2C)n(C)c1=O [caffeine]
inhibition of procaine hydrolysis [3]: shown to inhibit procaine hydrolysis

CCN(CC)CCOC(=O)c1ccc(N)cc1 [Procaine hydrochloride, procaine hydrochloride]
solubility in water [4]: soluble in water
hydrolysis by plasma cholinesterase (plasma cholinesterase): rapidly hydrolyzed
